Consider two molecules from patent US9492428B2, “Compounds, compositions, pharmaceutical compositions, and methods of use” (University of Louisville Research Foundation, Inc., priority 2011, dated 2016).

Test [1] concerns DU145 cells. Nature of the test: MTT assay (cytotoxicity / cell proliferation) in DU145. Type of test: cell-based, human. Conditions: Homo sapiens, DU-145; MTT assay, FIG. 4; read-out: GI50 against DU145. As to the method: (§1) FIG. 4. Bioassay of compound I-1, compound I-2, and compound I-3. SPA14-3-2 is pure compound I-2. SPA14-3-3 is pure compound I-3. SPA14-3-4 is pure compound I-1. MTT assays using compound I-1, compound I-2, and compound I-3 against DU145 and RWPE-1 cells lines.
FIG. 8. Cell proliferation assay. (A) DU145 or PC3 prostate cancer were plated at a density of 1,500 cells per well in 96-well plates and incubated 18 hours at 37° C. to allow adherence. They were untreated or treated by addition of different concentrations of compound I-1 (which were added directly to the medium) or vehicle (DMSO), and proliferation was measured using a 3-(4,5-dimethylthiazol-2-yl)-2,5-diphenyltetrazolium bromide MTT assay after 3 days of treatment. Points, mean of triplicate normalized samples to vehicle sample; bars, SE. (B) GI50 after 3 days of treatment. (C) Prostate cancer cells (DU145 or PC3) or a non-malignant epithelial cells (RWPE-1) were plated at a density of 1,000 cells per well in 96-well plates and incubated 18 hours at 37° C. to allow adherence. They were untreated or treated by addition of different concentrations of compound I-1 (added directly to the medium) or vehicle (DMSO), and proliferation was by MTT assay after 5 days of treatment. Points, mean of triplicate normalized samples to vehicle sample; bars, SE.
(§2) Isolation, NMR, and X-ray crystallographic analyses. Leaves, stems, and few fruits of Physalis angulate L (Solanaceae) were collected in Rio Domingusa. Kuith/Barranquita, Amazonas Department, Northeastern Peru, and identified by the team led by Walter Lewis (collection voucher 18597, Ext. 1159). Dried and grounded material (46 g) was extracted with ethanol (1 L, 95%) for 7 days. The evaporated crude extract (6.26 g) was denoted SPA. An aliquot (1.5 g) of SPA was partitioned between dichloromethane (40 mL) and water (40 mL), affording two fractions: organic (SPA1, 500 mg) and aqueous (SPA2, 600 mg). All MTT assays were performed as described in Bates et al. “G-Rich Oligonucleotides for Cancer Treatment” Chapter 21 of Methods in Molecular Biology, Gene Therapy of Cancer, Wolfgang Walther and Ulrike S. Stein (eds.), Vol. 542, 2009, Humana Press. […] SPA14-3 (30 mg) was treated on an HPLC using a reverse phase C18 column eluted in gradient mode of methanol and water (from 80% methanol to 100% methanol) and detected at 254 nm, yielding SPA14-3-1 (0 mg), SPA14-3-2 (1.2 mg of pure compound I-2), SPA14-3-3 (4.1 mg of pure compound I-3), and SPA14-3-4 (18 mg of pure compound I-1).
General Experimental Procedure. Compound I-1 was isolated as described in Example Set 1, above. For samples of compound I-1 used in Example Set 2, HPLC and NMR indicated a purity of at least 95%. All experiments described in Example Set 2 were repeated at least two or three times. […]
For orientation: Formazan colour is commonly taken as a measure of viable cells.

Test [2] has as its system RWPE-1 cells. Briefly: MTT assay (cytotoxicity) in RWPE-1. Type of test: cell-based. The conditions noted are these: Homo sapiens, FIG. 4, read-out: GI50 against RWPE-1.
Source text: as §1, §2
General Experimental Procedure. Compound I-1 was isolated as described in Example Set 1, above. For samples of compound I-1 used in Example Set 2, HPLC and NMR indicated a purity of at least 95%. All experiments described in Example Set 2 were repeated at least two or three times. All MTT assays were performed according to Bates et al. “G-Rich Oligonucleotides for Cancer Treatment” Chapter 21 of Methods in Molecular Biology, Gene Therapy of Cancer, Wolfgang Walther and Ulrike S. Stein (eds.), Vol. 542, 2009, Humana Press.

SMILES strings stand for the structures. Converted amounts (≈) assume the structure as drawn.

As usually defined, the GI50 is the concentration at which growth is held to half of that of the control. As for `CC12C[C@@H]([C@@]34CC[C@@]5(O3)C3C(O4)[C@H]4O[C@]46CC=CC(=O)[C@]6(C)[C@H]3CC[C@@]5(C)O)C(C[C@@]1(C)O)OC2=O` (stereo partly shown) [I-2], the figures for the GI50 in test [1] and in test [2] were 3.4 µg/mL (≈ 6.79 µM) and 3 µg/mL (≈ 5.99 µM), respectively.
The matching figures for `CC12C[C@@H]([C@@]34CC[C@@]5(O3)C3C(O4)[C@H]4O[C@]46CC=CC(=O)[C@]6(C)[C@H]3CC[C@]5(C)O)C(C[C@@]1(C)O)OC2=O` (stereo partly shown) [I-3]: 3 µg/mL (≈ 5.99 µM) and 3.3 µg/mL (≈ 6.59 µM).
